Reference: ChEMBL document CHEMBL3507680, “University of Dundee, Gates Library screen for HepG2 cell viability”

Test: Human HepG2 cell viability assay in 384 well format
Format: toxicity, cell-based
Design: dose 125 nL, time 70.5 hour; cytotoxicity at 70.5 h: concentration not given beside the values
Details: HepG2 cells, read-out: Inhibition

Row | SMILES | cytotoxicity at 70.5 h
1 | Cc1ccc(S(=O)(=O)NCC2(O)CCOc3ccccc32)s1 (stereo unspecified) | -4.01%
2 | Cc1cc(C(=O)NCc2cc(C)oc2C)no1 | -5.78%
3 | COC(=O)NCCCn1ccnc1-c1ccccc1 | -6.73%
4 | CCOCC(=O)NCCCn1ccnc1-c1ccccc1 | -7.22%
5 | O=C(NCc1nc2ccccc2[nH]1)c1cc2n(n1)CCCO2 | -1.37%
6 | CCOC(=O)Cc1csc(NC(=O)c2cc3n(n2)CCCO3)n1 | -2.3%
7 | O=C(NCc1nc2ccccc2[nH]1)c1cnn2c1OCCC2 | -1.96%
8 | Cc1ccccc1C(=O)N1CC2(COC(C)(C)OC2)C1 | 9.04%
9 | CC1(C)OCC2(CO1)CN(C(=O)c1ccccc1Cl)C2 | -1.63%
10 | CC1(C)OCC2(CO1)CN(S(=O)(=O)c1ccc(Cl)s1)C2 | -1.76%
11 | CC(=O)N(C)CC(=O)Nc1cnc(-n2ccnc2C)nc1 | 27.9%
12 | COCC(=O)Nc1cnc(N2CCCC2)nc1 | -0.927%
13 | COCC(=O)Nc1cnc(N2CCOCC2)nc1 | -3.21%
14 | O=C(Nc1cnc(N2CCOCC2)nc1)c1ccc(C(F)(F)F)cc1 | 6.8%
15 | O=C(CCCc1ccccc1)Nc1cnc(N2CCOCC2)nc1 | 2.35%
16 | O=C(COc1ccc(Cl)cc1)Nc1cnc(N2CCOCC2)nc1 | 1.79%
17 | CCOc1ccc(NC(=O)Nc2cnc(N3CCOCC3)nc2)cc1 | 3.88%
18 | CN(C)c1ncc(NS(=O)(=O)c2ccc(OC(F)(F)F)cc2)cn1 | 3.34%
19 | CN1CCC2(Cc3ccccc3NC2=O)C1 (stereo unspecified) | -3.49%
20 | CC(C)C(=O)N1CCCC12CCN(C(=O)c1ccno1)C2 (stereo unspecified) | -1.72%
21 | O=C(C[C@H]1[C@H]2CN(C(=O)CO)C[C@@H]12)Nc1cccnc1 | 0.591%
22 | CN(C)C(=O)c1nc2c(n1C)CCN(Cc1ccccc1)C2 | 0.767%
23 | CC(C)N1CCc2onc(Cn3cccn3)c2C1 | -5.3%

Row | SMILES | cytotoxicity at 70.5 h
24 | CCOC[C@@H]1CC[C@H]2[C@H](CCN2S(=O)(=O)Cc2ccccc2)O1 | 10.7%
25 | COC[C@@H]1CC[C@H]2[C@H](CCN2S(=O)(=O)Cc2ccccc2)O1 | -1.62%
26 | CCOC[C@H]1CC[C@H]2[C@H](CCN2S(=O)(=O)Cc2ccccc2)O1 | -1.8%
27 | CCN(CC)[C@H]1COC[C@@H]2CN(Cc3cnn(C)c3)C[C@@H]21 | -3.13%
28 | CCS(=O)(=O)NCC1OCCc2cn(CC3CCOCC3)nc21 (stereo unspecified) | 11.8%
29 | Cc1cnc(N2CCC3(CC2)CC(NC(=O)C(C)C)CO3)nc1 (stereo unspecified) | 11.3%
30 | CS(=O)(=O)NCC1OCCc2cn(CC3CC3)nc21 (stereo unspecified) | 13%
31 | CN(C)S(=O)(=O)NCC1OCCc2cn(CC3CCOCC3)nc21 (stereo unspecified) | 13.8%
32 | CN(C)S(=O)(=O)N1CC[C@]2(C[C@@H](OCC3CC3)CO2)C1 | 0.733%
33 | CN(C)Cc1cc(=O)n2c(n1)CN(CC1CC1)CCC2 | -6.12%
34 | CCn1cc2c(n1)C(COC)CN(Cc1ccoc1)C2 (stereo unspecified) | -15.1%
35 | CCS(=O)(=O)N1CCOC2(COCCN(c3nccs3)C2)C1 (stereo unspecified) | -8.91%
36 | Fc1cccc(N2CCOC3(CCCN(c4cnccn4)C3)C2)c1 (stereo unspecified) | -7.3%
37 | CCS(=O)(=O)N1Cc2ccnn2CC(c2nc(C)no2)C1 (stereo unspecified) | -9.51%
38 | O=S(=O)(C1CC1)N1CC[C@]2(C[C@@H](OCC3CCOCC3)CO2)C1 | -9.4%
39 | CN1C[C@@H]2COC[C@]2(C(=O)NCc2cccs2)C1 | 13.4%
40 | Cc1ccsc1C(=O)N1CCCn2nnc(Cn3cccn3)c2C1 | 9.85%
41 | O=C(c1ccno1)N1CCC2(CC1)C(=O)Nc1ccccc12 | -6.37%
42 | c1cncc(COCC2CN(Cc3ccsc3)Cc3ccnn3C2)c1 (stereo unspecified) | -4.42%
43 | CCc1nn(-c2cc(Oc3cc(C)ccc3C)ncn2)c(N)c1C#N | -1.76%
44 | O=C(Cn1nc(Br)nc1Br)N1CCCCC1 | -3.74%
45 | CCCc1ccc(N2CCN(Cc3nc4ccccc4n3C)CC2)cc1 | 19.9%
46 | Cc1cnc(N2C(=O)CSC2c2ccc(F)cc2)s1 (stereo unspecified) | -5.25%

Row | SMILES | cytotoxicity at 70.5 h
47 | Cc1cnc(N2C(=O)CSC2c2ccc(N(C)C)cc2)s1 (stereo unspecified) | -8.63%
48 | COc1cc2ncn(CC(=O)NCCCN(C)C)c(=O)c2cc1OC | -6.49%
49 | CC(=O)c1cn(CCC(=O)N[C@H](C(=O)O)C(C)C)c2ccccc12 | -4%
50 | COc1cccc(-c2nc(C)c(C(=O)N[C@@H](C)C(=O)O)s2)c1 | 4.53%
51 | COc1cc2nc(C)n(CC(=O)NCCCN(C)C)c(=O)c2cc1OC | 6.18%
52 | O=C(NCCN1CCNCC1)c1c(O)c2ccccc2[nH]c1=O | 36.3%
53 | CC(C)Cc1nc(OCC(=O)O)c(C#N)c2c1CCC2 | 3.53%
54 | CC(C)Cc1nc(OCC(N)=O)c(C#N)c2c1CCC2 | 14.5%
55 | CN(C)CCNC(=O)CNC(=O)N1CCc2c([nH]c3ccc(Cl)cc23)C1 | 45.2%
56 | CSCC[C@H](NC(=O)Cn1ccc2c(Cl)cccc21)C(=O)O | -11.9%
57 | O=C1N(c2cccc(Cl)c2)Cc2nc(=O)n(Cc3cccc(F)c3)n21 | 0.196%
58 | O=C(Cn1nc2c(cc1=O)CCCC2)N[C@@H](Cc1ccccc1)C(=O)O | 6.84%
59 | Cc1n[nH]c2c1C(c1ccc(O)c(Cl)c1)SCC(=O)N2 (stereo unspecified) | 1.38%
60 | O=C1CC(c2ccncc2)c2c(c(C(=O)O)cn2-c2ccc(F)cc2)N1 (stereo unspecified) | -6.2%
61 | CC1=Nc2c(c(=O)[nH]n2C2CCCC2)C(c2cccc(O)c2)S1 (stereo unspecified) | 3.38%
62 | COc1cccc2c1ccn2CCNC(=O)C(C)C | -6.5%
63 | O=C(CCc1nc2cccnc2[nH]1)NCc1ccc2c(c1)OCO2 | -9.32%
64 | O=C1CSC(c2cccs2)c2cnn(C3CCCC3)c2N1 (stereo unspecified) | -5.69%
65 | Cn1cccc1CNC(=O)CCCc1nnc2ccccn12 | -3.22%
66 | COC(=O)CC(c1cnn(C)c1)c1oc(C)cc(=O)c1O (stereo unspecified) | 7.5%
67 | CNC(=O)c1cc(S(=O)(=O)C(C)C)cs1 | 1.49%
68 | COc1ccc2c(c1)OC1(CCN(Cc3ccc(F)cc3)CC1)CC2=O | 1.23%
69 | CC1(C)OCC(CNC(=O)c2cnn(-c3cc(Cl)ccc3Cl)c2N)O1 (stereo unspecified) | -5.2%

Row | SMILES | cytotoxicity at 70.5 h
70 | CC(=O)N1N=C(c2ccccc2)OC1C(=O)NCCc1cccc(Cl)c1 (stereo unspecified) | -19.7%
71 | O=C(c1ccccn1)N1CCN(c2ccc(-c3cccnc3)nn2)CC1 | -11.4%
72 | CC(C)(C)n1cc(C(=O)NCCCn2ccnc2)c2cccnc21 | -4.7%
73 | Cc1ccc(C)c(C(NC(=O)C(C)(C)C)c2cccnc2)c1 (stereo unspecified) | -4.24%
74 | Cc1ccc(C)c(NC(=O)Nc2c[nH]c(=O)[nH]c2=O)c1 | -27.8%
75 | O=C(Nc1ccc(F)cc1F)Nc1c[nH]c(=O)[nH]c1=O | -14.5%
76 | O=C(NCCN1CCOCC1)c1ccc(-n2ccc3ccccc32)s1 | -8.71%
77 | COc1ccc(C2OC(COc3ccccc3Br)=NN2C(C)=O)cc1 (stereo unspecified) | -6.79%
78 | COc1ccc2c(c1)CC(NC(=O)NCc1cccs1)CO2 (stereo unspecified) | -14.1%
79 | COc1ccc(OC)c(CN2CCCCCC2c2cccs2)c1 (stereo unspecified) | 31.6%
80 | O=C(CSc1nc2c(cnn2CCO)c(=O)[nH]1)N1CCCCCC1 | 13.2%
81 | CN1CCc2cc(C(CNS(=O)(=O)c3cccs3)N3CCCC3)ccc21 (stereo unspecified) | 30.7%
82 | CCS(=O)(=O)N1CCCC2(COCCN(c3cnccn3)C2)C1 (stereo unspecified) | -2.48%
83 | O=C(c1ccc[nH]1)N1CCC2(CCCN2Cc2cccnc2)CC1 | 0.719%
84 | CN(C)C(=O)CN1CCCC2(CCN(c3ccc(C#N)cn3)C2)C1 (stereo unspecified) | 8.76%
85 | CNC(=O)[C@@H]1CC[C@@H]2[C@@H](CCN2Cc2ccccc2F)O1 | -4.13%
86 | CC(C)NC(=O)[C@@H]1CC[C@@H]2[C@@H](CCN2Cc2cn(C)c3ccccc23)O1 | -2.33%
87 | CN1CCc2onc(Cn3cccc3)c2C1 | -0.902%
88 | CC(C)N1CCc2onc(Cn3cccc3)c2C1 | -2.22%
89 | c1cnc(N2CCO[C@H]3CN(Cc4cc[nH]n4)C[C@H]32)cn1 | -7.22%
90 | CC(C)NC(=O)C1CCC2(CCN(Cc3cnn(C)c3)CC2)C1 (stereo unspecified) | -8.81%
91 | c1cnc(N2CCO[C@H]3CN(Cc4c[nH]cn4)C[C@H]32)cn1 | -5.79%
92 | CCS(=O)(=O)N1CCC2(CC1)COC(COc1cccnc1)C2 (stereo unspecified) | -10.2%

Row | SMILES | cytotoxicity at 70.5 h
93 | CC(C)NC(=O)C1CCC2(CCN(Cc3cnn(C)c3)CC2)CO1 (stereo unspecified) | -17%
94 | CN(C)S(=O)(=O)N1CC[C@H]2OCC[C@@]2(COc2cccnc2)C1 | -12.5%
95 | Cc1ncsc1CN1C[C@H](OCC(C)C)[C@H]2OCCC[C@H]21 | -0.162%
96 | c1csc(CN2CCC3(CCCN(c4nncs4)C3)C2)n1 (stereo unspecified) | -1.22%
97 | CN1CCOCC12CCN(c1nncs1)CC2 | -2.11%
98 | Cc1ccoc1C(=O)N1C[C@@H](N2CCN(C)CC2)[C@H]2OCCC[C@H]21 | -4.64%
99 | CN1CCN([C@@H]2CN(C(=O)Cc3ccsc3)[C@@H]3CCCO[C@H]23)CC1 | -4.38%
100 | Fc1cnc(N2CC[C@@H]3OC(COCc4cccnc4)CC[C@@H]32)nc1 (stereo partly specified) | -4.57%
101 | CN(C)Cc1n[nH]c2c1CCN(Cc1cccs1)C2 | -4.47%
102 | Cc1ccc(CN2CCc3c(CN(C)C)n[nH]c3C2)s1 | -0.649%
103 | COc1ccc(CN2CCOC3(CCCN(c4cnccn4)C3)C2)cc1 (stereo unspecified) | -4.22%
104 | Cn1cc(C[C@H]2[C@H](N3CCOCC3)CCN2C2CCOCC2)cn1 | -13.7%
105 | CNC(=O)c1cc2c(nc1NCC(C)C)CCN(CCOC)CC2 | 4.78%
106 | CNC(=O)c1cc2c(nc1NCC(C)C)CCN(C)CC2 | 0.255%
107 | CNC(=O)c1cc2c(nc1NCC(C)C)CCN(CC1CC1)CC2 | -9.46%
108 | CN(C)[C@@H]1CN(Cc2cnn(C)c2)[C@@H]2COC[C@H]12 | 7.8%
109 | CN(C)CCNC(=O)[C@H]1C[C@H]2CN(c3ncccn3)C[C@H]2N1C | -2.47%
110 | CN1CCN([C@@H]2CCN(C3CCOCC3)[C@H]2Cc2cnn(C)c2)CC1 | -6.56%
111 | COc1ccc(CCNC(=O)C2CCC(Cn3cnnn3)CC2)cc1 (stereo unspecified) | -2.47%
